According to US20240043404A1 (AbbVie Inc., priority 2009, published 2024):

system: RS4;11 cells; test: RS4;11 cell viability assay (CellTiter Glo); assay type: cell-based, human; conditions: 50,000 cells per well, 10% human serum, 48 hours; read-out: RS4; 11 EC50 Values;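 further: acute lymphoblastic leukemia line RS4,11, EC50 derived from percentage of viable cells after treatment relative to untreated controls, cell killing taken as a measure of Bcl-2 inhibition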
Description: The acute lymphoblastic leukemia (ALL) cell line RS4;11 was used as the primary human cell line to assess the cellular activity of Bcl-2 selective agents in vitro and their efficacy in vivo.
Cell cytotoxicity EC50 values were assessed using CellTiter Glo (Promega) according to the manufacturer's recommendations. The EC50 values were determined as a percentage of viable cells following treatment compared to the untreated control cells.

| SMILES | EC50 |
| --- | --- |
| CC1(C)CCC(CN2CCN(c3ccc(C(=O)NS(=O)(=O)c4ccc(NCC56CC7CC(C5)C(O)C(C7)C6)c([N+](=O)[O-])c4)c(Oc4cnc5[nH]ccc5c4)c3)CC2)=C(c2ccc(Cl)cc2)C1 (stereo not shown) [Example 199, 4-(4-{[2-(4-chlorophenyl)-4,4-dimethylcyclohex-1-en-1-yl]methyl}piperazin-1-yl)-N-{[4-({[(E)-4-hydroxy-1-adamantyl]methyl}amino)-3-nitrophenyl]sulfonyl}-2-(1H-pyrrolo[2,3-b]pyridin-5-yloxy)benzamide] | 5.06 nM |

same assay, conditions: Homo sapiens, RS4-11, 48 h, 50,000 cells per well, 10% human serum, 48 hours; read-out: RS4; 11 EC50 Values

| SMILES | EC50 |
| --- | --- |
| CC1(C)CCC(CN2CCN(c3ccc(C(=O)NS(=O)(=O)c4ccc(NCC5CCC(F)(F)CC5)c([N+](=O)[O-])c4)c(Oc4cnc5[nH]ccc5c4)c3)CC2)=C(c2ccc(Cl)cc2)C1 [Example 239, 4-(4-{[2-(4-chlorophenyl)-4,4-dimethylcyclohex-1-en-1-yl]methyl}piperazin-1-yl)-N-[(4-{[(4,4-difluorocyclohexyl)methyl]amino}-3-nitrophenyl)sulfonyl]-2-(1H-pyrrolo[2,3-b]pyridin-5-yloxy)benzamide] | 23.7 nM |
| CC1(C)CCC(CN2CCN(c3ccc(C(=O)NS(=O)(=O)c4ccc(NC5CCN(C(C)(C)C)CC5)c(S(=O)(=O)C(F)(F)F)c4)c(Oc4cnc5[nH]ccc5c4)c3)CC2)=C(c2ccc(Cl)cc2)C1 [Example 240, N-({4-[(1-tert-butylpiperidin-4-yl)amino]-3-[(trifluoromethyl)sulfonyl]phenyl}sulfonyl)-4-(4-{[2-(4-chlorophenyl)-4,4-dimethylcyclohex-1-en-1-yl]methyl}piperazin-1-yl)-2-(1H-pyrrolo[2,3-b]pyridin-5-yloxy)benzamide] | 17.3 nM |
| CC1(C)CCC(CN2CCN(c3ccc(C(=O)NS(=O)(=O)c4ccc(NCC5CCCN(S(C)(=O)=O)C5)c([N+](=O)[O-])c4)c(Oc4cnc5[nH]ccc5c4)c3)CC2)=C(c2ccc(Cl)cc2)C1 (stereo not shown) [Example 147, 4-(4-{[2-(4-chlorophenyl)-4,4-dimethylcyclohex-1-en-1-yl]methyl}piperazin-1-yl)-N-{[4-({[1-(methylsulfonyl)piperidin-3-yl]methyl}amino)-3-nitrophenyl]sulfonyl}-2-(1H-pyrrolo[2,3-b]pyridin-5-yloxy)benzamide] | 26.2 nM |
| O=C(NS(=O)(=O)c1ccc(NCCCN2CCOCC2)c([N+](=O)[O-])c1)c1ccc(N2CCN(Cc3ccccc3-c3ccc(Cl)cc3)CC2)cc1Oc1cnc2[nH]ccc2c1 [Example 2, 4-{4-[(4′-chloro-1,1′-biphenyl-2-yl)methyl]piperazin-1-yl}-N-({4-[(3-morpholin-4-ylpropyl)amino]-3-nitrophenyl}sulfonyl)-2-(1H-pyrrolo[2,3-b]pyridin-5-yloxy)benzamide] | 783 nM |
| CC1(C)CCC(CN2CCN(c3ccc(C(=O)NS(=O)(=O)c4cnc(NC5CCN(C6CC6)CC5)c(Cl)c4)c(Oc4cnc5[nH]ccc5c4)c3)CC2)=C(c2ccc(Cl)cc2)C1 [Example 243, N-({5-chloro-6-[(1-cyclopropylpiperidin-4-yl)amino]pyridin-3-yl}sulfonyl)-4-(4-{[2-(4-chlorophenyl)-4,4-dimethylcyclohex-1-en-1-yl]methyl}piperazin-1-yl)-2-(1H-pyrrolo[2,3-b]pyridin-5-yloxy)benzamide] | 807 nM |
| CC1(C)CCC(CN2CCN(c3ccc(C(=O)NS(=O)(=O)c4ccc(OCC5COCCN5C5CCOCC5)c([N+](=O)[O-])c4)c(Oc4cnc5[nH]ccc5c4)c3)CC2)=C(c2ccc(Cl)cc2)C1 (stereo not shown) [Example 104, 4-(4-{[2-(4-chlorophenyl)-4,4-dimethylcyclohex-1-en-1-yl]methyl}piperazin-1-yl)-N-({3-nitro-4-[(4-tetrahydro-2H-pyran-4-ylmorpholin-3-yl)methoxy]phenyl}sulfonyl)-2-(1H-pyrrolo[2,3-b]pyridin-5-yloxy)benzamide] | 71.2 nM |
| O=C(NS(=O)(=O)c1ccc(NC[C@H]2CC[C@H](O)CC2)c([N+](=O)[O-])c1)c1ccc(N2CCN(CC3=C(c4ccc(Cl)cc4)CCC(F)(F)C3)CC2)cc1Oc1cnc2[nH]ccc2c1 [Example 324, 4-(4-{[2-(4-chlorophenyl)-5,5-difluorocyclohex-1-en-1-yl]methyl}piperazin-1-yl)-N-[(4-{[(trans-4-hydroxycyclohexyl)methyl]amino}-3-nitrophenyl)sulfonyl]-2-(1H-pyrrolo[2,3-b]pyridin-5-yloxy)benzamide] | 4.53 nM |
| CC1(C)CCC(CN2CCN(c3ccc(C(=O)NS(=O)(=O)c4ccc(OCC5CN(C6CC6)CCO5)c(Cl)c4)c(Oc4cnc5[nH]ccc5c4)c3)CC2)=C(c2ccc(Cl)cc2)C1 (stereo not shown) [Example 331, N-({3-chloro-4-[(4-cyclopropylmorpholin-2-yl)methoxy]phenyl}sulfonyl)-4-(4-{[2-(4-chlorophenyl)-4,4-dimethylcyclohex-1-en-1-yl]methyl}piperazin-1-yl)-2-(1H-pyrrolo[2,3-b]pyridin-5-yloxy)benzamide] | 926 nM |
| CN1CCC[C@H]1C(=O)N1CCC(COc2ccc(S(=O)(=O)NC(=O)c3ccc(N4CCN(CC5=C(c6ccc(Cl)cc6)CC(C)(C)CC5)CC4)cc3Oc3cnc4[nH]ccc4c3)cc2Cl)CC1 [Example 312, N-[(3-chloro-4-{[1-(1-methyl-L-prolyl)piperidin-4-yl]methoxy}phenyl)sulfonyl]-4-(4-{[2-(4-chlorophenyl)-4,4-dimethylcyclohex-1-en-1-yl]methyl}piperazin-1-yl)-2-(1H-pyrrolo[2,3-b]pyridin-5-yloxy)benzamide] | 16.2 nM |
| CC1(C)CC(c2ccc(Cl)cc2)=C(CN2CCN(c3ccc(C(=O)NS(=O)(=O)c4ccc(NCC5CCOCC5)c(C(F)(F)F)c4)c(Oc4cnc5[nH]ccc5c4)c3)CC2)CO1 [Example 42, 4-(4-{[4-(4-chlorophenyl)-6,6-dimethyl-5,6-dihydro-2H-pyran-3-yl]methyl}piperazin-1-yl)-2-(1H-pyrrolo[2,3-b]pyridin-5-yloxy)-N-{[4-[(tetrahydro-2H-pyran-4-ylmethyl)amino]-3-(trifluoromethyl)phenyl]sulfonyl}benzamide] | 534 nM |
| CN1CCC(COc2ncc(S(=O)(=O)NC(=O)c3ccc(N4CCN(CC5=C(c6ccc(Cl)cc6)CC(C)(C)CC5)CC4)cc3Oc3cnc4[nH]ccc4c3)cc2Br)CC1 [Example 47, N-({5-bromo-6-[(1-methylpiperidin-4-yl)methoxy]pyridin-3-yl}sulfonyl)-4-(4-{[2-(4-chlorophenyl)-4,4-dimethylcyclohex-1-en-1-yl]methyl}piperazin-1-yl)-2-(1H-pyrrolo[2,3-b]pyridin-5-yloxy)benzamide] | 32.6 nM |
| CC1(C)CCCC(CN2CCN(c3ccc(C(=O)NS(=O)(=O)c4ccc(NCC5CCOCC5)c([N+](=O)[O-])c4)c(Oc4cnc5[nH]ccc5c4)c3)CC2)=C1c1ccc(Cl)cc1 [Example 150, 4-(4-{[2-(4-chlorophenyl)-3,3-dimethylcyclohex-1-en-1-yl]methyl}piperazin-1-yl)-N-({3-nitro-4-[(tetrahydro-2H-pyran-4-ylmethyl)amino]phenyl}sulfonyl)-2-(1H-pyrrolo[2,3-b]pyridin-5-yloxy)benzamide] | 51 nM |
| CC1(C)CCC(CN2CCN(c3ccc(C(=O)NS(=O)(=O)c4ccc(NC5CCN(C6CC6)CC5)c([N+](=O)[O-])c4)c(Oc4cnc5[nH]ccc5c4)c3)CC2)=C(c2ccc(Cl)cc2)C1 [Example 98, 4-(4-{[2-(4-chlorophenyl)-4,4-dimethylcyclohex-1-en-1-yl]methyl}piperazin-1-yl)-N-({4-[(1-cyclopropylpiperidin-4-yl)amino]-3-nitrophenyl}sulfonyl)-2-(1H-pyrrolo[2,3-b]pyridin-5-yloxy)benzamide] | 22.9 nM |
| CC1(C)CCC(CN2CCN(c3ccc(C(=O)NS(=O)(=O)c4ccc(OCC5(F)CCN(S(C)(=O)=O)CC5)c([N+](=O)[O-])c4)c(Oc4cnc5[nH]ccc5c4)c3)CC2)=C(c2ccc(Cl)cc2)C1 [Example 194, 4-(4-{[2-(4-chlorophenyl)-4,4-dimethylcyclohex-1-en-1-yl]methyl}piperazin-1-yl)-N-[(4-{[4-fluoro-1-(methylsulfonyl)piperidin-4-yl]methoxy}-3-nitrophenyl)sulfonyl]-2-(1H-pyrrolo[2,3-b]pyridin-5-yloxy)benzamide] | 8.19 nM |
| CC1(C)CCC(CN2CCN(c3ccc(C(=O)NS(=O)(=O)c4ccc(NCc5cccc(OC(F)(F)F)c5)c([N+](=O)[O-])c4)c(Oc4cnc5[nH]ccc5c4)c3)CC2)=C(c2ccc(Cl)cc2)C1 [Example 175, 4-(4-{[2-(4-chlorophenyl)-4,4-dimethylcyclohex-1-en-1-yl]methyl}piperazin-1-yl)-N-[(3-nitro-4-{[3-(trifluoromethoxy)benzyl]amino}phenyl)sulfonyl]-2-(1H-pyrrolo[2,3-b]pyridin-5-yloxy)benzamide] | > 1000 nM |
| CC1(C)CCC(CN2CCN(c3ccc(C(=O)NS(=O)(=O)c4ccc(NC5CCN(C(C)(C)C)CC5)c([N+](=O)[O-])c4)c(Oc4cnc5[nH]ccc5c4)c3)CC2)=C(c2ccc(Cl)cc2)C1 [Example 227, N-({4-[(1-tert-butylpiperidin-4-yl)amino]-3-nitrophenyl}sulfonyl)-4-(4-{[2-(4-chlorophenyl)-4,4-dimethylcyclohex-1-en-1-yl]methyl}piperazin-1-yl)-2-(1H-pyrrolo[2,3-b]pyridin-5-yloxy)benzamide] | 7.36 nM |
| CC1(C)CCC(CN2CCN(c3ccc(C(=O)NS(=O)(=O)c4ccc(OCC5CCN(C(CF)CF)CC5)c([N+](=O)[O-])c4)c(Oc4cnc5[nH]ccc5c4)c3)CC2)=C(c2ccc(Cl)cc2)C1 [Example 129, 4-(4-{[2-(4-chlorophenyl)-4,4-dimethylcyclohex-1-en-1-yl]methyl}piperazin-1-yl)-N-{[4-({1-[2-fluoro-1-(fluoromethyl)ethyl]piperidin-4-yl}methoxy)-3-nitrophenyl]sulfonyl}-2-(1H-pyrrolo[2,3-b]pyridin-5-yloxy)benzamide] | 14.8 nM |

same assay, conditions: Homo sapiens, RS4-11, Table 5, direct comparison Z=N with corresponding analogs Z=C; read-out: RS4; 11 EC50

| SMILES | EC50 |
| --- | --- |
| O=C(NS(=O)(=O)c1ccc(NCCCN2CCOCC2)c([N+](=O)[O-])c1)c1ccc(N2CCN(Cc3ccccc3-c3ccc(Cl)cc3)CC2)cc1Oc1cnc2[nH]ccc2c1 [Example 2, 4-{4-[(4′-chloro-1,1′-biphenyl-2-yl)methyl]piperazin-1-yl}-N-({4-[(3-morpholin-4-ylpropyl)amino]-3-nitrophenyl}sulfonyl)-2-(1H-pyrrolo[2,3-b]pyridin-5-yloxy)benzamide] | 783 nM |
